Laboratory results from article PMC11050599, “Novel Tetracyclic Azaphenothiazines with the Quinoline Ring as New Anticancer and Antibacterial Derivatives of Chlorpromazine” (International Journal of Molecular Sciences, 2024).
Values after ≈ are worked out from the molar mass of the structure shown.

Key:
A549 (lung cancer) = assay: MTT assay, A549 cells; assay type: cell-based, human; settings: Homo sapiens, A549, 72 h, read-out: IC50 A549
In short: (§1)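 After a 72 h incubation of 1 × 10^4 cells per well with compound, absorbance from MTT reduction was converted to percent of the medium-only control.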

[1] = tested on: MDA-MB-231 (breast cancer); assay: MTT assay, MDA-MB-231 cells; assay type: cell-based, human
In short: (§2)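 HCT116 grew in MEM, PC3 in RPMI and MDA-MB-231 and HaCaT in high-glucose DMEM, all supplemented with 10% FBS and 20 mM HEPES. Compounds were incubated with 1 × 10^4 cells per well for 72 h, and viability was derived from MTT absorbance against untreated cells.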

[2] = tested on: HaCaT (immortalized human keratinocytes); assay: MTT assay, HaCaT normal cells; assay type: cell-based; settings: Homo sapiens, HaCaT, 72 h, read-out: IC50 HaCaT (Table 3)
In short: as §2

[3] = tested on: MiaPaCa-2 (pancreas cancer); assay: MTT assay, MiaPaCa-2 cells; assay type: cell-based, human
In short: as §1

PC3 (prostate cancer) = assay: MTT assay, PC3 cells; assay type: cell-based, human
In short: as §2

HCT116 (colon cancer) = assay: MTT assay, HCT116 cells; assay type: cell-based, human
In short: as §2

E. coli ATCC 25922 = assay: MIC broth microdilution; assay type: cell-based
In short: (§3)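 Two-fold serial broth microdilution in Mueller-Hinton II broth, final inoculum adjusted to […]. Compounds dissolved in DMSO, final solvent at most 1%.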

P. aeruginosa ATCC 15442 = assay: MIC broth microdilution; assay type: cell-based; settings: Pseudomonas aeruginosa, ATCC15442, 19 h, read-out: MIC P. aeruginosa ATCC 15442
In short: as §3

S. aureus ATCC 25923 = assay: MIC broth microdilution; assay type: cell-based; settings: Staphylococcus aureus, ATCC25923, 19 h, read-out: MIC S. aureus ATCC 25923
In short: as §3

S. aureus ATCC 29213 = assay: MIC broth microdilution; assay type: cell-based; settings: Staphylococcus aureus, ATCC29213, 19 h, read-out: MIC S. aureus ATCC 29213
In short: as §3

S. aureus ATCC 6538 = assay: MIC broth microdilution; assay type: cell-based; settings: Staphylococcus aureus, ATCC6538, 19 h, read-out: MIC S. aureus ATCC 6538
In short: as §3

S. aureus NCTC 4163 = assay: MIC broth microdilution; assay type: cell-based; settings: Staphylococcus aureus, NCTC4163, 19 h, read-out: MIC S. aureus NCTC 4163
In short: as §3

[4] = tested on: S. epidermidis ATCC 12228; assay: MIC broth microdilution; assay type: cell-based; settings: Staphylococcus epidermidis, ATCC12228, 19 h, read-out: MIC S. epidermidis ATCC 12228
In short: as §3

[5] = tested on: S. epidermidis ATCC 35984; assay: MIC broth microdilution; assay type: cell-based; settings: Staphylococcus epidermidis, ATCC35984, 19 h, read-out: MIC S. epidermidis ATCC 35984
In short: as §3

cancer cell lines = assay: MTT assay, summary over several cell lines; assay type: cell-based, human; settings: Homo sapiens, read-out: IC50 range toward four cancerous cell lines
Method: The human cell lines, such as A549 (lung cancer), MDA-MB-231 (breast cancer), MiaPaca-2 (pancreatic cancer), PC3 (metastatic prostate cancer), HCT-116 (colon carcinoma), and HaCaT (immortalized keratinocytes), were sourced from the American Type Culture Collection (ATCC) in Rockville, USA. Culturing conditions varied as follows: HCT116 cells were cultured in MEM (ThermoSci, Waltham, MA, USA), A549, MDA-MB-231, MiaPaca, HaCaT cells in DMEM High Glucose and PC3 cells were cultured in RPMI (Biowest SAS, Nuaillé, France). The growth medium consisted of 10% fetal bovine serum (FBS, Sigma-Aldrich, St. Louis, MO, USA), 20 mM HEPES (Biowest, Nuaillé, France), and antibiotics (100 U/mL of penicillin and 100 μg/mL of streptomycin) from Gibco, Grand Island, NY, USA. […] These compounds were added to 96-well plates containing study cells (1 × 10^4 cells per well) and incubated for 72 h. […] Cell absorbance results were incorporated into the formula for calculating the relative MTT level (%), enabling the assessment of cell viability following exposure to the test compounds. The cell viability percentage represents the MTT reduction in cells treated with the test compounds compared to the control sample, where only the medium was added to the cells.

A549 cells [6] = assay: Annexin V-FITC/PI apoptosis flow cytometry, A549; assay type: cell-based, human; settings: representative dot plot, Figure 4A, IC50, 72 h
Method: (§4) To analyze the number of cells in early apoptosis, late apoptosis, or necrosis, A549, MiaPaca-2, and HCT-116 cell lines were cultured in 6-well plates with a seeding density of 1 × 10^5 cells per well. These cells were then treated with selected compounds (4, 5, and 8) at their respective IC50 concentrations and incubated for 72 h. Subsequently, a commercially available kit, the FITC: Annexin V Apoptosis Detection Kit I from BD Biosciences Pharmingen in San Jose, CA, USA, was utilized to assess apoptosis. After 72 h the cells were harvested, washed, and labeled with Annexin V-FITC and propidium iodide (PI) following the manufacturer’s protocol (Becton Dickinson), as previously described. The stained cells were analyzed by flow cytometry. The cells were identified as early apoptotic (Annexin V+/PI−) or late apoptotic/necrotic (Annexin V+/PI+).

MiaPaCa-2 cells = assay: Annexin V-FITC/PI apoptosis flow cytometry, MiaPaCa-2; assay type: cell-based, human; settings: representative dot plot, Figure 4B, IC50, 72 h
Method: as §4

HCT116 cells [7] = assay: Annexin V-FITC/PI apoptosis flow cytometry, HCT116; assay type: cell-based, human; settings: representative dot plot, Figure 4C, IC50, 72 h
Method: as §4

A549 cells [8] = assay: Cell cycle analysis by flow cytometry, A549; assay type: cell-based, human; settings: compound at IC50, 24 h
Method: (§5) In brief, cells were seeded at a density of 1 × 10^5 cells/well on a six-well plate and allowed to adhere for 24 h. […] Both population cells (the attached and detached) were collected and centrifuged at 400× g for 5 min at 4 °C. After centrifugation, the cells were washed twice with 0.9% NaCl and subsequently fixed in 500 μL of 70 % cold ethanol overnight.
(§6) Before analysis, the fixed cells underwent another centrifugation step at 850× g for 5 min at 4 °C and were washed with PBS. Following the washes, the cells were incubated with 50 μL of RNase (100 μg/mL) and 200 μL of propidium iodide (PI) (50 μg/mL) at 37 °C for 30 min in the dark. Finally, 100 μL of PBS was added to each sample. Flow cytometry (Becton Dickinson FACS Verse, Franklin Lakes, NJ, USA) was then used to analyze the cell cycle distribution, identifying cells in various stages including sub-G1, G0/G1, S, and G2/M phases. Each assay was performed in quadruplicate.

HCT116 cells [9] = assay: Cell cycle analysis by flow cytometry, HCT116; assay type: cell-based, human; settings: IC50, 24 h, compared to the control
Method: as §5, §6

[10] = SI = IC50 for normal cell line (HaCaT)/IC50 cancer cell line

O=C(NCCCl)NCCCCN1c2cc(Cl)ccc2Sc2cc3ccccc3nc21 [Compound 21, 1-(4-(8-Chloroquino[3,2-b]benzo[1,4]thiazin-6-yl)butyl)-3-(2-chloroethyl)urea]
IC50 (A549 (lung cancer)): 6.98 ± 1.2 µM | IC50 ([1]; Homo sapiens, MDA-MB-231, 72 h, read-out: IC50 MDA): 7.4 ± 1.2 µM | SI MDA [1, 10]: 0.15 | IC50 [2]: 1.1 ± 0.3 µM | IC50 ([3]; Homo sapiens, MIA PaCa-2, 72 h, read-out: IC50 MiaPaCa-2): 6.4 ± 2.4 µM | SI MiaPaCa-2 [3, 10]: 0.2 | IC50 (PC3 (prostate cancer); Homo sapiens, PC-3, 72 h, read-out: IC50 PC3): 76.6 ± 9.8 µM | SI PC3 (PC3 (prostate cancer); [10]): 0.1 | IC50 (HCT116 (colon cancer); Homo sapiens, HCT-116, 72 h, read-out: IC50 HCT116): 11.3 ± 2.2 µM | SI HCT116 (HCT116 (colon cancer); [10]): 0.1 | MIC E. coli ATCC 25922 (E. coli ATCC 25922; 19 h, 35 °C): 8 µg/mL (≈ 17.3 µM) | MIC (E. coli ATCC 25922; Escherichia coli, ATCC25922, 19 h, read-out: MIC E. coli ATCC 25922): 8 µg/mL (≈ 17.3 µM) | MIC (P. aeruginosa ATCC 15442): > 256 µg/mL | MIC (S. aureus ATCC 25923): 2 µg/mL (≈ 4.33 µM) | MIC (S. aureus ATCC 29213): 2 µg/mL (≈ 4.33 µM) | MIC (S. aureus ATCC 6538): 2 µg/mL (≈ 4.33 µM) | MIC (S. aureus NCTC 4163): 2 µg/mL (≈ 4.33 µM) | MIC [4]: 2 µg/mL (≈ 4.33 µM) | MIC [5]: 2 µg/mL (≈ 4.33 µM) | IC50 (cancer cell lines): 6.4 to 11.3 µM | A549: Alive (A549 cells [6]): 3.27% | A549: Early Apoptotic (A549 cells [6]): 1.31% | A549: Necrotic (A549 cells [6]): 15.90% | A549: Necrotic/Late Apoptotic (A549 cells [6]): 79.52% | MiaPaca: Alive (MiaPaCa-2 cells): 8.66% | MiaPaca: Early Apoptotic (MiaPaCa-2 cells): 2.45% | MiaPaca: Necrotic (MiaPaCa-2 cells): 37.47% | MiaPaca: Necrotic/Late Apoptotic (MiaPaCa-2 cells): 51.42% | HCT-116: Alive (HCT116 cells [7]): 17.91% | HCT-116: Early Apoptotic (HCT116 cells [7]): 1.71% | HCT-116: Necrotic (HCT116 cells [7]): 5.16% | HCT-116: Necrotic/Late Apoptotic (HCT116 cells [7]): 75.22% | percentage of Sub G1 phase A549 cells (A549 cells [8]): 27.6% | increase in the cell amount at the sub-G1 phase, HCT116 (HCT116 cells [9]): 12 fold | increase in the number of cells in the G2/M phase, HCT116 (HCT116 cells [9]): approximately 1.3 fold | increase in the number of cells in the S phase, HCT116 (HCT116 cells [9]): approximately 2 fold
